Data as given in ChEMBL document CHEMBL5291721, “A preclinical secondary pharmacology resource illuminates target-adverse drug reaction associations of marketed drugs” (Nat Commun, 2023).

Assays:
Adenosine receptor A2a = Adenosine receptor A2a (Homo sapiens, UniProt P29274)
[1] = target: T1, Prostaglandin G/H synthase 1 (Rattus norvegicus, UniProt Q63921); type: functional
T1 sequence (Q63921 whole entry): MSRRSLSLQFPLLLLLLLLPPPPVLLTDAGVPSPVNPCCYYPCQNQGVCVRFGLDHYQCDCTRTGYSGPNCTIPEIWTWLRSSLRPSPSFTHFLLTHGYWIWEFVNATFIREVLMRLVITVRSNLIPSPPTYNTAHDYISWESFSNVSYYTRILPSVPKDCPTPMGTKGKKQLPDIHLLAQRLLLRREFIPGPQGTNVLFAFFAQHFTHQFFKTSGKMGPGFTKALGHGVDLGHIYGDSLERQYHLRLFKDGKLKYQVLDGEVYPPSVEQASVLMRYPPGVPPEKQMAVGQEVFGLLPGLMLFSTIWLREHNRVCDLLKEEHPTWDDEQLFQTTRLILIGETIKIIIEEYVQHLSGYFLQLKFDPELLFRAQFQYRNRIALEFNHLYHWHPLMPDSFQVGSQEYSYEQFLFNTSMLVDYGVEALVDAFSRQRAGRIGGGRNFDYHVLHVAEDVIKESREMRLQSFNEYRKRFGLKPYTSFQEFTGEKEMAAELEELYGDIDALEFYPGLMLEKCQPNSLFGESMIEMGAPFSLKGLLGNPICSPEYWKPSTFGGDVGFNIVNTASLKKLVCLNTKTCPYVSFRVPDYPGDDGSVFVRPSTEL

[2] = target: T2, 5-hydroxytryptamine receptor 3A (Homo sapiens, UniProt P46098); type: functional
T2 sequence (P46098 whole entry): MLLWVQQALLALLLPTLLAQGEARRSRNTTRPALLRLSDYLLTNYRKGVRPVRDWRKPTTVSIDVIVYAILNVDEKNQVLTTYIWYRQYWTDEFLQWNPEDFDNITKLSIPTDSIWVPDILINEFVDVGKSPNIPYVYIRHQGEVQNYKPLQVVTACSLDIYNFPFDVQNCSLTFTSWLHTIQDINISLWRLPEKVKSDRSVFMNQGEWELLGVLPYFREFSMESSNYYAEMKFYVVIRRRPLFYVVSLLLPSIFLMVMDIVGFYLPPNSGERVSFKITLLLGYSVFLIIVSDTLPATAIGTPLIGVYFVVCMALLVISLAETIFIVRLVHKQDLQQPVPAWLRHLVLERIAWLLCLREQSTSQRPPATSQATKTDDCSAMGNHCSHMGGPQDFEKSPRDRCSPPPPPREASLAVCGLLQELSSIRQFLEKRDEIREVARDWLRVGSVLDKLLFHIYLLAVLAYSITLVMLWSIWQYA

D(3) dopamine receptor = D(3) dopamine receptor (Homo sapiens, UniProt P35462)
Chain of D(3) dopamine receptor (P35462 whole entry): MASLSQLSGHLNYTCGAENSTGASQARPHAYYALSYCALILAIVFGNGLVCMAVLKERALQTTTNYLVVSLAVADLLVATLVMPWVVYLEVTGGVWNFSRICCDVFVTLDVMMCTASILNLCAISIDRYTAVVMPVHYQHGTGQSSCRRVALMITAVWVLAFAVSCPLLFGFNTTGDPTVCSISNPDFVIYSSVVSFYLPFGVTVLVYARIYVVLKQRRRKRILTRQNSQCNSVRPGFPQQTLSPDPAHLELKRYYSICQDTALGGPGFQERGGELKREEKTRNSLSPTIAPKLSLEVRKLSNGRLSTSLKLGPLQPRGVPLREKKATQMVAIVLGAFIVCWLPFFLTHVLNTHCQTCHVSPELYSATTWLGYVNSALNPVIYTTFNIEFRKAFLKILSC

[3] = target: T3, Alpha-2A adrenergic receptor (Homo sapiens, UniProt P08913); type: functional, cell-based
T3 sequence (P08913 whole entry): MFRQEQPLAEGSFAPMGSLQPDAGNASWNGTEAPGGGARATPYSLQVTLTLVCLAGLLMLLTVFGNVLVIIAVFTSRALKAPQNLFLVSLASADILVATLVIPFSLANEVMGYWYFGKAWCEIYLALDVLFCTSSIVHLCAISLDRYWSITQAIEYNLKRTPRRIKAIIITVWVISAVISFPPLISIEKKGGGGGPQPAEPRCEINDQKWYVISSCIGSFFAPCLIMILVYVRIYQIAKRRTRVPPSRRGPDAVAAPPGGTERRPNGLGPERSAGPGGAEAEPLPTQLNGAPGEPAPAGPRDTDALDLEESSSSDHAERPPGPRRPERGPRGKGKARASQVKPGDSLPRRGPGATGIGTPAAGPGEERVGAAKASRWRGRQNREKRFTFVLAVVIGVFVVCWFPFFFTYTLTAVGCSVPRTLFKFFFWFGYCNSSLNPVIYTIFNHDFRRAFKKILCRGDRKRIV

[4] = target: Neuronal acetylcholine receptor subunit alpha-4 (Homo sapiens, UniProt P43681)
Chain of Neuronal acetylcholine receptor subunit alpha-4 (P43681 whole entry): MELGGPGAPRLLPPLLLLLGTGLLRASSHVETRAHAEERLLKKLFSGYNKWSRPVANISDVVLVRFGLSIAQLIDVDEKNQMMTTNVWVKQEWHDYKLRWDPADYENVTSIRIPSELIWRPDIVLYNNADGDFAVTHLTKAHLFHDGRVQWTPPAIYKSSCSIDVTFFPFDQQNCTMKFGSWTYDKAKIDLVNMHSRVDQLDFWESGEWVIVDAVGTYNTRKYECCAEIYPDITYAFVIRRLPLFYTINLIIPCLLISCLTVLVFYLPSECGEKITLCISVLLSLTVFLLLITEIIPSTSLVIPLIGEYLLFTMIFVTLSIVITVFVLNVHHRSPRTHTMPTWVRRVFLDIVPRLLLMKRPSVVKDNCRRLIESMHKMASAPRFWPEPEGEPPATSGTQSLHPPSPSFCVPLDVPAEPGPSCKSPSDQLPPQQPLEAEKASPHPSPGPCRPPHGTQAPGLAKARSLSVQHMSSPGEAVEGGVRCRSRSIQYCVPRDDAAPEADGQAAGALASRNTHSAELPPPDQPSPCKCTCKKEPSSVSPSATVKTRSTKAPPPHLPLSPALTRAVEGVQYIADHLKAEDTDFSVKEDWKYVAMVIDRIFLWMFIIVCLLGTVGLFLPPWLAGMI

[5] = target: T4, 5-hydroxytryptamine receptor 2C (Homo sapiens, UniProt P28335)
T4 sequence (P28335 whole entry): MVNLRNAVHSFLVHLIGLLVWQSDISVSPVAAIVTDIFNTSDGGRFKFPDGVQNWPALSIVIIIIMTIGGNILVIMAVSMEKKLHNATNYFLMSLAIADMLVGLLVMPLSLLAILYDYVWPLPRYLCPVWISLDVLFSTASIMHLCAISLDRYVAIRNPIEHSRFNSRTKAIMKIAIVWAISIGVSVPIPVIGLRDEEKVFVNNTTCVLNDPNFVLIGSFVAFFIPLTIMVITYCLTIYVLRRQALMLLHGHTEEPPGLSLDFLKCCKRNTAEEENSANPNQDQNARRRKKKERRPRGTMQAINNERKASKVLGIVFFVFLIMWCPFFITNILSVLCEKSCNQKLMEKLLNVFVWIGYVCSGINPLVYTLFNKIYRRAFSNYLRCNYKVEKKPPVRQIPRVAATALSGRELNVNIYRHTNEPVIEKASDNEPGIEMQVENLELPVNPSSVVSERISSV

Histamine H2 receptor = Histamine H2 receptor (Homo sapiens, UniProt P25021); type: functional, cell-based
Chain of Histamine H2 receptor (P25021 whole entry): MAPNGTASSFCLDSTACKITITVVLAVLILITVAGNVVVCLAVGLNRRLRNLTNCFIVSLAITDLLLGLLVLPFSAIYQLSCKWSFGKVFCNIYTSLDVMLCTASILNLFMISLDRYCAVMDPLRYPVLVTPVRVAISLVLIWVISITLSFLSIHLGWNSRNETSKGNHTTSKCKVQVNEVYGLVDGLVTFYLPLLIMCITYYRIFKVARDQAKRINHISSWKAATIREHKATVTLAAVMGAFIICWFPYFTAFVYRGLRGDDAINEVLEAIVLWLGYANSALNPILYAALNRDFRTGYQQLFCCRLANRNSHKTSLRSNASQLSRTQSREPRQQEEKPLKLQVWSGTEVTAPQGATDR

[6] = target: Sodium-dependent dopamine transporter (Homo sapiens, UniProt Q01959)
Chain of Sodium-dependent dopamine transporter (Q01959 whole entry): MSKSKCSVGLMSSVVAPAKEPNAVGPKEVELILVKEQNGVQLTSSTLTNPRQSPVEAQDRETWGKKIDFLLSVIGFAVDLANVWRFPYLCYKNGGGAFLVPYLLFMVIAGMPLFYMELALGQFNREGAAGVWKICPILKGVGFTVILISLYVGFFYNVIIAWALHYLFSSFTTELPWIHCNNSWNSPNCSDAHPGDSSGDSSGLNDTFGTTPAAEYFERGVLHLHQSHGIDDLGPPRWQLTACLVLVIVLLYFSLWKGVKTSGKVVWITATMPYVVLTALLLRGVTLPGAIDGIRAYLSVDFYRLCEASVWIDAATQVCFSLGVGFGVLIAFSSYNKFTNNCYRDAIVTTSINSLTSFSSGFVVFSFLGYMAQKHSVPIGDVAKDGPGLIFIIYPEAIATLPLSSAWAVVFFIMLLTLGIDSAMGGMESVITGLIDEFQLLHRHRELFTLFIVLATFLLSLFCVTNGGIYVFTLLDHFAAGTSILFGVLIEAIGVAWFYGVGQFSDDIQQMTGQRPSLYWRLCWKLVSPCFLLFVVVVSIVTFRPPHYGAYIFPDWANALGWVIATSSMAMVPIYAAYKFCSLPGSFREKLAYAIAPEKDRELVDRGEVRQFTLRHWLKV

Thromboxane A2 receptor = target: T5, Thromboxane A2 receptor (Homo sapiens, UniProt P21731)
T5 sequence (P21731 whole entry): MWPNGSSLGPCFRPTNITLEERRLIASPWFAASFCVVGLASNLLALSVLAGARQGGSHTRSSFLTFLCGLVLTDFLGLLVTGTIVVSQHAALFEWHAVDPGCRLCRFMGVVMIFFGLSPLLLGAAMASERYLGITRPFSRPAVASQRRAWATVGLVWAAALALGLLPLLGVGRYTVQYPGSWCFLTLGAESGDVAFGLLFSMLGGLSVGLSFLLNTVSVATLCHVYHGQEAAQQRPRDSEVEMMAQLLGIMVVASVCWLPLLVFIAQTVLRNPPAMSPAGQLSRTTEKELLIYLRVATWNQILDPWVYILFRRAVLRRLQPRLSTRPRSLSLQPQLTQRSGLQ
Also: assay procedure not described here.

Chain of Adenosine receptor A2a (P29274 whole entry): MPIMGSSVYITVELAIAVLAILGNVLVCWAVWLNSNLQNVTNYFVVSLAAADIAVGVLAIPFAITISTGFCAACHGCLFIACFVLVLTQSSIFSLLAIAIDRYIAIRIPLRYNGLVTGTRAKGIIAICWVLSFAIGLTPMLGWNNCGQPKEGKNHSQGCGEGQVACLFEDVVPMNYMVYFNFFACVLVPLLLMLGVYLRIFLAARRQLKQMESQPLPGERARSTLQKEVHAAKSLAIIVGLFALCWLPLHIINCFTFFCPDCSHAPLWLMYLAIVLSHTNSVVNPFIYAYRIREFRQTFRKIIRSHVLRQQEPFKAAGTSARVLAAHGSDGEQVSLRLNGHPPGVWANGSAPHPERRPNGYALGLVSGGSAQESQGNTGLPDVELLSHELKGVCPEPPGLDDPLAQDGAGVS

Row | Compound | AC50 (Adenosine receptor A2a) | AC50 [1] | AC50 [2] | AC50 (D(3) dopamine receptor) | AC50 [3] | AC50 [4] | AC50 [5] | AC50 (Histamine H2 receptor) | AC50 [6] | AC50 (Thromboxane A2 receptor)
1 | CC1OC2(CS1)CN1CCC2CC1 (stereo not given) [CEVIMELINE] | > 10 µM | > 10 µM | > 30 µM | > 30 µM | > 10 µM | > 10 µM | > 30 µM | > 30 µM | > 10 µM | > 10 µM
2 | Cc1cccc(N2CC(CO)OC2=O)c1 (stereo not given) [TOLOXATONE] | > 30 µM | > 30 µM | > 30 µM | > 30 µM | > 30 µM | > 30 µM | > 30 µM | > 30 µM | > 30 µM | > 30 µM
3 | Cc1cc(C(C)(C)C)cc(C)c1CC1=NCCN1 [XYLOMETAZOLINE] | > 30 µM | > 30 µM | > 30 µM | 3.87 µM | > 30 µM | > 30 µM | 10 µM | > 30 µM | > 30 µM | > 30 µM
4 | CC(N)C(O)c1ccccc1 (stereo not given) [PHENYLPROPANOLAMINE] | > 30 µM | > 30 µM | > 10 µM | > 10 µM | > 10 µM | > 10 µM | > 30 µM | > 10 µM | > 30 µM | > 30 µM
5 | C=CCNc1nc(NCC=C)nc(N2CCN(C(c3ccc(F)cc3)c3ccc(F)cc3)CC2)n1 [ALMITRINE] | > 30 µM | > 30 µM | > 30 µM | > 30 µM | > 30 µM | > 30 µM | > 30 µM | > 30 µM | > 30 µM | > 30 µM
6 | CC(C(=O)O)c1ccc(-c2ccccc2)c(F)c1 (stereo not given) [FLURBIPROFEN] | > 10 µM | 11 µM | > 10 µM | 0.086 µM | > 10 µM | > 10 µM | 2.6 µM | > 10 µM | > 10 µM | > 10 µM
7 | COCC1=C(C(=O)O)N2C(=O)[C@@H](NC(=O)/C(=N\OC)c3csc(N)n3)[C@H]2SC1 [CEFPODOXIME] | > 30 µM | > 30 µM | > 30 µM | > 30 µM | > 30 µM | > 30 µM | 0.12 µM | > 30 µM | > 30 µM | > 30 µM
8 | Nc1ncn([C@H]2C[C@H](O)[C@@H](CO)O2)c(=O)n1 [DECITABINE] | > 30 µM | > 30 µM | > 30 µM | > 30 µM | > 30 µM | > 30 µM | > 30 µM | > 30 µM | > 30 µM | > 30 µM
9 | CCC(=O)O[C@]1(C(=O)SCF)[C@H](C)C[C@H]2[C@@H]3C[C@H](F)C4=CC(=O)C=C[C@]4(C)[C@@]3(F)[C@@H](O)C[C@@]21C [FLUTICASONE PROPIONATE] | > 30 µM | > 30 µM | > 30 µM | > 30 µM | > 30 µM | > 30 µM | > 30 µM | > 10 µM | > 30 µM | > 30 µM
10 | CC(C(=O)O)c1ccc(CC2CCCC2=O)cc1 (stereo not given) [LOXOPROFEN] | > 30 µM | > 30 µM | > 30 µM | > 30 µM | > 30 µM | > 30 µM | > 30 µM | > 30 µM | > 30 µM | > 30 µM
11 | CC(CCc1ccc(O)cc1)NCCc1ccc(O)c(O)c1 (stereo not given) [DOBUTAMINE] | > 30 µM | 5.31 µM | 27 µM | 0.728 µM | > 30 µM | > 30 µM | > 30 µM | > 10 µM | 0.897 µM | > 30 µM
12 | Clc1ccc2c(N3CCN(CCCN4CCN(c5ccnc6cc(Cl)ccc56)CC4)CC3)ccnc2c1 [PIPERAQUINE] | > 30 µM | > 30 µM | > 30 µM | 9 µM | > 30 µM | > 30 µM | > 30 µM | > 30 µM | > 30 µM | > 30 µM
13 | CC1(C)S[C@@H]2[C@H](NC(=O)[C@H](N)c3ccccc3)C(=O)N2[C@H]1C(=O)OCOC(=O)[C@@H]1N2C(=O)C[C@H]2S(=O)(=O)C1(C)C [SULTAMICILLIN] | > 30 µM | > 30 µM | > 30 µM | > 30 µM | > 30 µM | > 30 µM | > 30 µM | > 30 µM | > 30 µM | > 30 µM
14 | CCCCC(=O)O[C@]1(C(=O)CO)[C@@H](C)C[C@H]2[C@@H]3CCC4=CC(=O)C=C[C@]4(C)[C@@]3(F)[C@@H](O)C[C@@]21C [BETAMETHASONE VALERATE] | > 30 µM | > 30 µM | > 30 µM | > 30 µM | > 10 µM | > 10 µM | > 30 µM | > 10 µM | > 30 µM | > 30 µM
15 | CC(C)[C@H](N)C(=O)OCC(CO)OCn1cnc2c(=O)nc(N)[nH]c21 (stereo not given in full) [VALGANCICLOVIR] | > 30 µM | > 30 µM | > 30 µM | > 30 µM | > 30 µM | > 30 µM | > 30 µM | > 30 µM | > 30 µM | > 30 µM
16 | CCC1(c2ccccc2)CCC(=O)NC1=O (stereo not given) [GLUTETHIMIDE] | > 10 µM | > 10 µM | > 30 µM | > 30 µM | > 10 µM | > 10 µM | > 30 µM | > 10 µM | > 10 µM | > 10 µM
17 | CCC(=O)O[C@H]1CC[C@H]2[C@@H]3CCC4=CC(=O)CC[C@]4(C)[C@H]3CC[C@]12C [TESTOSTERONE PROPIONATE] | > 10 µM | > 10 µM | > 30 µM | > 30 µM | > 10 µM | > 10 µM | > 30 µM | > 10 µM | > 10 µM | > 10 µM
